Test results as given in patent US5804415A, “Prostaglandin E receptors, their DNA and production” (Takeda Chemical Industries, Ltd., priority 1992, dated 1998).

Key:
[1] = target: PGE2 receptor (EP2) (MP412) (Mus musculus, UniProt P32240); assay: Inhibition of [3H]-PGE2 binding to MP412-transfected COS-1 cell membranes; settings: for inhibition of PGE2 binding by subtype ligands: FIG. 8; for order of inhibition of specific [3H]-PGE2 binding by unlabeled PG: FIG. 7
Experimental: Mouse mastocytoma P-815 cell cDNA library carring cDNAs larger than 2.0 kb was prepared according to Example 1 (2). The probe DNA was prepared by PCR using mouse EP3 cDNA as a template; this 482 bp fragment covers the transmembrane segments I-IV region of the EP3 receptor. The 2.0×10^5 clones derived from the cDNA library were screened under either high (Sambrook) or low stringency condition. […] This cDNA was transfected into COS-1 cells according to the same manner as in Example 1 (3).
After the COS-1 cells carring the plasmid DNA obtained in above (1) were cultured for 72 h, cells were harvested and cell membranes were prepared.

[2] = target: T1, PGE2 receptor (EP3), subtype EP3α (MP660) (Mus musculus, UniProt P30557); assay: Inhibition of [3H]-PGE2 binding to MP660-transfected COS-1 cell membranes; ligand-binding test; settings: for potency in competing for [3H]PGE2 binding relative to PGE2 / competition for [3H]PGE2 binding: FIG. 2b; for competition for [3H]PGE2 binding: PGE analogues; for order of inhibition of [3H]PGE2 binding by unlabeled PGs: FIG. 2a
T1 sequence (P30557 1-365): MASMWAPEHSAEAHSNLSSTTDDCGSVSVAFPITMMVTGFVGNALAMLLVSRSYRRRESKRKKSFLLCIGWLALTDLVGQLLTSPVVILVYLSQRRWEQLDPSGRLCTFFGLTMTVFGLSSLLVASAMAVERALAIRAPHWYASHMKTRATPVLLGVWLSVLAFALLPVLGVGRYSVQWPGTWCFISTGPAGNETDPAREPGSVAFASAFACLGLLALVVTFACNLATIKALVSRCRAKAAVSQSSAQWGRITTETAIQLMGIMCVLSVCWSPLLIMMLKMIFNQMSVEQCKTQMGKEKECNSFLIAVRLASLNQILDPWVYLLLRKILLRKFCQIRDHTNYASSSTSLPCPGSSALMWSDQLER
Excerpt: (§1) The cDNA of MP660 was cleaved out with EcoRI and inserted to pcDNAI (Invitrogen) and subcloned, followed by transfection of this plasmid DNA to COS-1 cells by the DEAE-dextran method [D. J. Sussmann and G. Milman, Mol. Cell. Biol., 4, 1641 (1984)]. After 72-hour cultivation, cells were harvested and cell membranes were separated [M. Hirata al., Nature, 349, 617 (1991)].

[3] = target: T2, EP3α receptor (MP660/KCR cells) (Mus musculus, UniProt P30557); assay: Forskolin-stimulated cAMP synthesis in CHO cells stably expressing EP3α (MP660/KCR cells); assay type: cell-based
T2 construct: A full-length DNA clone having a 1,095 bp open reading frame, MP660, was thus obtained; expressed in transfected cells; host or cells: CHO-dhfr (lacking dihydrofolate reductase activity) cells; FERM BP-3803)
T2 sequence (P30557 1-365): T1 sequence (P30557 1-365)
Experimental: (§2) To obtain cells that stably express the receptor gene, cDNA transfection was conducted by the method described by Nakajima et al. [J. Biol. Chem., 267, 2437 (1992)] to establish a cell line. Specifically, the EcoRI fragment of MP660 was inserted to pdKCR-dhfr [S. Oikawa et al., Biochem. Biophys. Res. Commun., 164, 39 (1989)], a eukaryotic cell expression vector having the mouse dhfr gene as a selection marker. This plasmid was transfected to CHO-dhfr (lacking dihydrofolate reductase activity) cells [G. Urlaub and L. A. Chasin, Proc. Natl. Acad. Sci. USA, 77, 4216 (1980)] by the calcium phosphate method [F. L. Graham and A. J. van der Eb, Virology, 52, 456 (1973)]. The cells were subjected to selection culture in α-modified Eagle's medium [S. Oikawa et al., Biochem. Biophys. Res. Commun., 164, 39 (1989)] which contained no ribonucleoside and deoxyribonucleoside and which contained 100 unit/ml penicillin, 100 μg/ml streptomycin and 10% dialyzed bovine fetal serum (Cell Culture Laboratories). The cells which proliferated were cloned and clone cells were obtained. EP3α receptor cDNA transfection was confirmed by the RNA blotting method.

[4] = test system: EP3β receptor (MP653/KCR cells); assay: Forskolin-stimulated cAMP synthesis in CHO cells stably expressing EP3β (MP653/KCR cells); assay type: cell-based, mouse
Experimental: as §2, with “of MP653” for “of MP660”, “to CHO-dhfr(lacking” for “to CHO-dhfr (lacking”, “method [(F.” for “method [F.”, “cloned to have” for “cloned and”, “clone cells. EP3β” for “clone cells were obtained. EP3α”, “method. Using thus-obtained CHO cells which constantly express the EP3β receptor [MP653/KCR cells; IFO 50397, FERM BP-4183], the effect of PGE2 on forskolin-stimulated cAMP synthesis or M&B28, 767, an EP3 -specific agonist was assessed.” for “method.”

[5] = test system: EP2; settings: literature; cited from earlier work
[6] = target: T3, EP2 receptor (MP412) (Mus musculus, UniProt P32240); assay: cAMP assay in MP412-transfected COS-1 cells; assay type: cell-based
T3 construct: cAMP and inositol phosphate tests
Experimental: For cAMP assay, the plasmid DNA was transfected into COS-1 cells by the lipofection method (P. L. Felgner et al., Proc. Natl. Acad. Sci., 84, 7413 (1987)) and cultured for 72 h in a 24-well plate. Cyclic AMP levels in the cells were determined according to the method of Nakajima et al. (J. Biol. Chem. 267, 2437 (1992)).

[7] = test system: EP3β receptor (MP653); assay: Ligand-binding assay, [3H]-PGE2 binding to MP653-transfected COS-1 cell membranes; parameters: species or system mouse
Excerpt: as §1, with “MP653” for “MP660”, “Hirata et” for “Hirata”, “(1991)]. […] Also, the PGE2 receptor obtained was identified as the subtype EP3β receptor. The result of inhibitory activities of various ligands on the binding of [^3 H]-PGE2 to the MP653-transfected cell membrance was substantially the same as on the binding of [^3 H]-PGE2 to the MP660--transfected cell membrance obtained in Example 1.” for “(1991)].”

[8] = test system: membranes of untransfected cells; assay: [3H]-PGE2 binding to membranes of untransfected COS-1 cells (control); settings: untransfected COS-1 cell membranes
Excerpt: as §1, with “(1991)]. […] Also, the PGE2 receptor obtained was identified as the subtype EP3α receptor.” for “(1991)].”
After the COS-1 cells carring the plasmid DNA obtained in above (1) were cultured for 72 h, cells were harvested and cell membranes were prepared. […] The lack of binding activity of butaprost in mouse EP2 might indicate that the action of butaprost is species specific or there may be other forms of EP2 receptor subtype.

Chain of PGE2 receptor (EP2) (MP412) (P32240 whole entry, the tested form may be a part): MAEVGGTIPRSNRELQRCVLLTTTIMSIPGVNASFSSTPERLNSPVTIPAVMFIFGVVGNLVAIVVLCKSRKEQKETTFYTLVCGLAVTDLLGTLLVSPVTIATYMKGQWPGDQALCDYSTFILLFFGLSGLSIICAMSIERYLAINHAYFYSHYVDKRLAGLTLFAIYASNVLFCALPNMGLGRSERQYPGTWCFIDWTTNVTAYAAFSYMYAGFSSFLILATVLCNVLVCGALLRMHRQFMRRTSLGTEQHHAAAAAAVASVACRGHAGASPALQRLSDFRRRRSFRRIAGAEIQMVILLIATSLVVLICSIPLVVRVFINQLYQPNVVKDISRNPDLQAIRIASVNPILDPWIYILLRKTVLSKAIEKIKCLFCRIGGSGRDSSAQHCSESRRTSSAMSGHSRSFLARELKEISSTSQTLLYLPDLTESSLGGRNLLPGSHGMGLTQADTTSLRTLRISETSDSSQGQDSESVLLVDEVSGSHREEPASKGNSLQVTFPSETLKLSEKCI
T3 sequence (P32240 whole entry): as the sequence (P32240 whole entry, the tested form may be a part) above

| inhibition of PGE2 binding by subtype ligands [1] | SMILES | competition for [3H]PGE2 binding [2] | order of inhibition of [3H]PGE2 binding by unlabeled PGs [2] | order of inhibition of specific [3H]-PGE2 binding by unlabeled PG [1] | also measured |
| --- | --- | --- | --- | --- | --- |
| inhibited | CCCCC(C)(O)C/C=C/[C@H]1[C@H](O)CC(=O)[C@@H]1CCCCCCC(=O)OC (mixture of isomers) [misoprostol] |  |  |  |  |
|  | O=C(CC/C=C\CC[C@H]1C(=O)C[C@@H](O)[C@@H]1OCC(O)COc1ccccc1)Oc1ccc(NC(=O)c2ccccc2)cc1 (some centres unmarked) [GR 63799X] | specifically competed for the[^3 H]PGE2 binding with equal potency |  |  | potency in competing for [3H]PGE2 binding relative to PGE2 [2]: more potent than PGE2 itself |
| more weakly | O=C(O)CCCCCC[C@H]1C(=O)CC[C@@H]1/C=C/[C@@H](O)COc1ccccc1 [M&B 28,767] | specifically competed for the[^3 H]PGE2 binding with equal potency |  |  | potency in competing for [3H]PGE2 binding relative to PGE2 [2]: more potent than PGE2 itself; effect on forskolin-induced cAMP synthesis/accumulation ([3]; FIG. 3): inhibited forskolin-induced cAMP synthesis; potency in inhibiting forskolin-induced cAMP synthesis relative to PGE2 ([3]; FIG. 3): more potent than (PGE2; effect on forskolin-stimulated cAMP synthesis [4]: cAMP synthesis in MP653/KCR cells is inhibited; cross-reaction to EP2 [5]: weak cross-reaction |
|  | CCCCC[C@H](O)/C=C/[C@H]1C(=O)C[C@H](O)[C@@H]1C/C=C\CCCC(=O)O [PGD2] |  | PGE2 =PGE1 >iloprost, a PGI2 analogue>PGF2α >PGD2 | PGE2 (.largecircle.)=PGE1 (.circle-solid.)>>iloprost(.box-solid.), a stable PGI2 analogue ≥PGF2α (Δ)PGD2 (.quadrature.) |  |
|  | CCCCC[C@H](O)/C=C/[C@H]1[C@H](O)CC(=O)[C@@H]1CCCCCCC(=O)O [PGE1] |  | PGE2 =PGE1 >iloprost, a PGI2 analogue>PGF2α >PGD2 | PGE2 (.largecircle.)=PGE1 (.circle-solid.)>>iloprost(.box-solid.), a stable PGI2 analogue ≥PGF2α (Δ)PGD2 (.quadrature.) |  |
|  | CCCCC[C@H](O)/C=C/[C@H]1[C@H](O)CC(=O)[C@@H]1C/C=C\CCCC(=O)O [PGE2, prostaglandin E2] |  | PGE2 =PGE1 >iloprost, a PGI2 analogue>PGF2α >PGD2 | PGE2 (.largecircle.)=PGE1 (.circle-solid.)>>iloprost(.box-solid.), a stable PGI2 analogue ≥PGF2α (Δ)PGD2 (.quadrature.) | effect on forskolin-induced cAMP synthesis/accumulation ([3]; FIG. 3): dosedependent decrease; IC50 ([3]; forskolin-induced, FIG. 3, read-out: IC50 (inhibition of forskolin-induced cAMP synthesis)): 0.1 nM; effect on forskolin-stimulated cAMP synthesis [4]: cAMP synthesis in MP653/KCR cells is inhibited; inhibition of forskolin-induced cAMP formation ([6]; forskolin): neither inhibited forskolin-induced cAMP formation; cAMP level ([6]; no forskolin stated, FIG. 9): dose-dependently increased cAMP level |
|  | CCCCC[C@H](O)/C=C/[C@@H]1[C@@H](C/C=C\CCCC(=O)O)[C@@H](O)C[C@H]1O [PGF2α] |  | PGE2 =PGE1 >iloprost, a PGI2 analogue>PGF2α >PGD2 | PGE2 (.largecircle.)=PGE1 (.circle-solid.)>>iloprost(.box-solid.), a stable PGI2 analogue ≥PGF2α (Δ)PGD2 (.quadrature.) |  |
| did not inhibit it | CC(=O)NNC(=O)N1Cc2ccccc2Oc2ccc(Cl)cc21 [SC-19220] | no competition was found at all |  |  |  |
|  | CCCCC[C@H](O)/C=C/[C@H]1[C@H](O)CC(=O)[C@@H]1C/C=C\CCCC(=O)O [[3H]-PGE2] |  |  |  | specific binding of [3H]-labeled prostaglandin [2]: found to show specific binding; specific binding of [3H]-labeled prostaglandin [7]: found to show specific binding; specific binding of [3H]-labeled prostaglandin [1]: found to show specific binding; binding to membranes of untransfected cells ([8]; listed as [^3 H]-PGE2): almost negligible; binding to membranes of untransfected cells ([8]; listed as [^3 H]PGE2): did not bind to membranes of untransfected cells |
| did not inhibit it | CCCC1([C@H](O)C/C=C/[C@H]2[C@H](O)CC(=O)[C@@H]2CCCCCCC(=O)OC)CCC1 [butaprost] | no competition was found at all |  |  |  |
|  | CC#CCC(C)[C@H](O)/C=C/[C@@H]1[C@H]2C/C(=C/CCCC(=O)O)C[C@H]2C[C@H]1O (some centres unmarked) [iloprost] |  | PGE2 =PGE1 >iloprost, a PGI2 analogue>PGF2α >PGD2 | PGE2 (.largecircle.)=PGE1 (.circle-solid.)>>iloprost(.box-solid.), a stable PGI2 analogue ≥PGF2α (Δ)PGD2 (.quadrature.) |  |
| did not inhibit it | CS(=O)(=O)NC(=O)CCC/C=C\C[C@H]1C(=O)C[C@@H](O)[C@@H]1/C=C/[C@@H](O)COc1ccccc1 [sulprostone] |  |  |  |  |
